Laboratory results published in patent US20240279302A1, “OLFACTORY RECEPTOR EXPRESSING METHOD AND RESPONSE MEASUREMENT METHOD” (Kao Corporation, priority 2021, published 2024).

How the values were obtained:
OR4E2 = OR4E2 (Homo sapiens, UniProt Q8NGC2); conditions: in the presence of a metal ion (JP-A-2020-513564); cited from earlier work
consensus OR11H2 = target: T1, consensus OR11H2 (Homo sapiens, UniProt Q8NH07, A157T/A61V/C266F/D203A/E289A/F213L/F41L/F62C/G242R/I210T/I230L/I288V/I49T/K181M/K238L/L128F/L146H/L162I/M76I/N106T/N25R/P269S/Q137R/Q308R/Q30L/R68Q/S246A/S268G/T131A/T283A/T37K/V63A/Y156C); assay: Luciferase assay, sulfur compounds; format: cell-based
T1 construct: expressed in transfected cells; host or cells: HEK293
T1 sequence (Q8NH07 12-326 N25R/Q30L/T37K/F41L/I49T/A61V/F62C/V63A/R68Q/M76I/N106T/L128F/T131A/Q137R/L146H/Y156C/A157T/L162I/K181M/D203A/I210T/F213L/I230L/K238L/G242R/S246A/C266F/S268G/P269S/T283A/I288V/E289A/Q308R): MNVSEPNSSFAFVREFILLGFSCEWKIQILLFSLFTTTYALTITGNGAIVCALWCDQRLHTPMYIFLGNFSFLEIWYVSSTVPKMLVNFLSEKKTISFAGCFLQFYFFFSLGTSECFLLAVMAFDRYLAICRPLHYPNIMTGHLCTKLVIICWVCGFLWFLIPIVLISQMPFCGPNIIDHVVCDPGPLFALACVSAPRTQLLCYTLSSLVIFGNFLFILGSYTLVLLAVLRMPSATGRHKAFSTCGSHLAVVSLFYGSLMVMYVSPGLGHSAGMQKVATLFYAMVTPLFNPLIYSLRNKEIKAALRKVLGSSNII
Procedure: (§1) A reaction solution as to each consensus olfactory receptor prepared in Examples described above was prepared according to the composition shown in Table 4, left standing for 20 minutes in a clean bench, and then added to each well of a 96-well plate (Becton, Dickinson and Company). The original olfactory receptor was used as to OR4S2. Composition shown in Table 20 was used as to OR11H2 and OR4E2. Subsequently, 100 μL of HEK293 cells suspended in DMEM (Nacalai Tesque, Inc.) was inoculated at 2×10^5 cells/cm^2 to each well, and cultured for 24 hours in an incubator kept at 37° C. and 5% CO2. Cells expressing no olfactory receptor (Mock) were provided as a control.
(§2) The medium was removed from the cultures prepared in 1), and 75 μL of a test substance solution (methyl mercaptan (MeSH) (CAS: 74-93-1, Tokyo Chemical Industry Co., Ltd.), dimethyl sulfide (DMS) (CAS: 75-18-3, FUJIFILM Wako Pure Chemical Corp.), dimethyl disulfide (DMDS) (CAS: 624-92-0, Tokyo Chemical Industry Co., Ltd.), concentration range: 0 μM, 1 μM, 3 μM, 10 μM, 30 μM, 100 μM, and 300 μM, or dimethyl trisulfide (DMTS) (CAS: 3658-80-8, Tokyo Chemical Industry Co., Ltd.), concentration range: 0 μM, 0.1 μM, 0.3 μM, 1 μM, 3 μM, 10 μM, and 30 μM) prepared with a fresh medium was added thereto. Under a copper ion addition condition, the test substance solution was adjusted to contain 30 μM copper(II) chloride (FUJIFILM Wako Pure Chemical Corp.) in addition to the odorant. The cells were cultured for 4 hours in a CO2 incubator and the luciferase gene was expressed sufficiently in the cells. Luciferase activity was measured using Dual-Glo™ luciferase assay system (Promega Corp.) in accordance with the operation manual of the product. A luminescence value derived from firefly luciferase induced by test substance stimulation in each well of the 96-well plate was divided by a luminescence value derived from Renilla luciferase to calculate a value (fluc/hRluc) as a signal, which was then used in analysis. The signal under each transfection condition was normalized with the signal value (fluc/hRluc) under an odorant stimulation-free condition defined as 0% and the signal value (fluc/hRluc) by stimulation with 10 μM forskolin defined as 100%, and used as a response (%) in analysis.

consensus OR4K17 = target: T2, consensus OR4K17 (Homo sapiens, UniProt Q8NGC6, A163V/E24Q/F120Y/F158L/G263S/I192T/I205M/I296T/I46V/K226R/L86V/P230S/S297A/V197I/V23I/V81M/V91T); assay: Luciferase assay, sulfur compounds; format: cell-based
T2 construct: expressed in transfected cells; host or cells: HEK293
T2 sequence (Q8NGC6 with tags, fused parts or gaps V23I/E24Q/I46V/V81M/L86V/V91T/F120Y/F158L/A163V/I192T/V197I/I205M/K226R/P230S/G263S/I296T/S297A): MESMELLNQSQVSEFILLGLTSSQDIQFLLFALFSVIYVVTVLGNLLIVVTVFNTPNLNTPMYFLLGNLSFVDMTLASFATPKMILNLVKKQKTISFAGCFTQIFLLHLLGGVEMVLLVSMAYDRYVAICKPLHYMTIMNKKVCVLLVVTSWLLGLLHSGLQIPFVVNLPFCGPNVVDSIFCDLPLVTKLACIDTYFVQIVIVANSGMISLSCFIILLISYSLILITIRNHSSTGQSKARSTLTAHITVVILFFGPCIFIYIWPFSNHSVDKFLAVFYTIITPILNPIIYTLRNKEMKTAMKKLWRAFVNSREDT
Procedure: as §1, §2

[1] = target: T3, OR4S2 (original olfactory receptor) (Homo sapiens, UniProt Q8NH73); assay: Luciferase assay, sulfur compounds; format: cell-based
T3 construct: expressed in transfected cells; host or cells: HEK293
T3 sequence (Q8NH73 1-311): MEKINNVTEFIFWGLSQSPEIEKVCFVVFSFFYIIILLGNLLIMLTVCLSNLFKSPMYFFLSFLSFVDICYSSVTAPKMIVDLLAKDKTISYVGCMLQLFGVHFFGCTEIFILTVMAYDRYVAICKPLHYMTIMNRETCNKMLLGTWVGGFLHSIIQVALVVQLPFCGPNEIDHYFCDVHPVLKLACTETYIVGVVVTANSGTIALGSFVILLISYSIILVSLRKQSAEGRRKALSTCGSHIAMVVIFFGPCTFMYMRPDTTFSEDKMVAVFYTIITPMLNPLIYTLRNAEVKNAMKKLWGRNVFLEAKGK
Procedure: as §1, §2

consensus OR4E2 = target: T4, consensus OR4E2 (Homo sapiens, UniProt Q8NGC2, A48T/F285L/G158V/H228Q/I116T/I142V/I197M/I47V/L183P/M219T/M25I/M36V/Q234R/R21W/S209T/S40L/S54R/T201S/T49I/T99A/V118M/V214L); assay: Luciferase assay, sulfur compounds; format: cell-based
T4 construct: Flag (N); Rho tag (N); expressed in transfected cells; host or cells: HEK293
T4 sequence (Q8NGC2 1-312 R21W/M25I/M36V/S40L/I47V/A48T/T49I/S54R/T99A/I116T/V118M/I142V/G158V/L183P/I197M/T201S/S209T/V214L/M219T/H228Q/Q234R/F285L limits assumed): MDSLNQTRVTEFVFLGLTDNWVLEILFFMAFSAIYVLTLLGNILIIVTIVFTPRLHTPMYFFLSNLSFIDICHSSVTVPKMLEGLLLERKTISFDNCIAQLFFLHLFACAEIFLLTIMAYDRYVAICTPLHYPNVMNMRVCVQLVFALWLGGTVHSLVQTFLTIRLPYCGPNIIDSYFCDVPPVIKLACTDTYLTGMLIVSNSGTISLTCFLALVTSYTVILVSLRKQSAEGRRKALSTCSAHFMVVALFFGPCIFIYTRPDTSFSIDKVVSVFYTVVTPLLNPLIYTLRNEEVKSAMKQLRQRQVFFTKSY
Procedure: as §1, §2

consensus OR4C15 = target: T5, consensus OR4C15 (Homo sapiens, UniProt Q8NGM1, A218G/A270V/E23K/G63A/I200A/I247V/I275T/L152F/L222F/L266F/M197L/N174D/N209I/N278T/Q295N/R137W/R299K/T258A/T88R/V55G/V87E/W233R); assay: Luciferase assay, sulfur compounds; format: cell-based
T5 construct: Flag (N); Rho tag (N); expressed in transfected cells; host or cells: HEK293
T5 sequence (Q8NGM1 1-311 with the stated changes limits assumed): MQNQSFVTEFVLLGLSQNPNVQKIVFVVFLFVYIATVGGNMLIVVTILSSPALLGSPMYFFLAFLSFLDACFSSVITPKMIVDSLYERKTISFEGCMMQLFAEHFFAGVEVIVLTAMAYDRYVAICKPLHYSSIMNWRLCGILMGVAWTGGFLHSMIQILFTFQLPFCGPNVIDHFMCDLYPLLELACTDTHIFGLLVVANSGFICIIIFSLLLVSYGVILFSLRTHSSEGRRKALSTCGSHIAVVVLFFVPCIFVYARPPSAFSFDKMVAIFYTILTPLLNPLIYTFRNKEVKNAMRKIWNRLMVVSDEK
Procedure: as §1, §2

[2] = tested on: HEK293 cells expressing olfactory receptor; assay: Luciferase assay: ligand responsiveness of consensus vs original olfactory receptors; format: cell-based, human; conditions: consensus design
Procedure: For luciferase assay, a reaction solution was prepared according to composition shown in Table 4, left standing for 20 minutes in a clean bench, and then added to each well of a 96-well plate (Becton, Dickinson and Company). Subsequently, 100 μL of HEK293 cells suspended in DMEM (Nacalai Tesque, Inc.) was inoculated at 2×10^5 cells/cm^2 to each well, and cultured for 24 hours in an incubator kept at 37° C. and 5% CO2. Cells expressing no olfactory receptor (Mock) were provided as a control.
The medium was removed from the cultures prepared in 2), and 75 μL of a test substance solution with a predetermined concentration prepared with a fresh medium was added thereto. The cells were cultured for 4 hours in a CO2 incubator and the luciferase gene was sufficiently expresses in the cells. Luciferase activity was measured using Dual-Glo™ luciferase assay system (Promega Corp.) in accordance with the operation manual of the product. A luminescence value derived from firefly luciferase induced by test substance stimulation in each well of the 96-well plate was divided by a luminescence value derived from Renilla luciferase to calculate a signal, which was then used in analysis. The signal under each transfection condition was normalized with the signal under a stimulation-free condition defined as 0% and the signal by stimulation with 30 μM forskolin defined as 100%, and used as a response (%) in analysis.

[3] = in the presence of a copper ion

Chain of OR4E2 (Q8NGC2 whole entry): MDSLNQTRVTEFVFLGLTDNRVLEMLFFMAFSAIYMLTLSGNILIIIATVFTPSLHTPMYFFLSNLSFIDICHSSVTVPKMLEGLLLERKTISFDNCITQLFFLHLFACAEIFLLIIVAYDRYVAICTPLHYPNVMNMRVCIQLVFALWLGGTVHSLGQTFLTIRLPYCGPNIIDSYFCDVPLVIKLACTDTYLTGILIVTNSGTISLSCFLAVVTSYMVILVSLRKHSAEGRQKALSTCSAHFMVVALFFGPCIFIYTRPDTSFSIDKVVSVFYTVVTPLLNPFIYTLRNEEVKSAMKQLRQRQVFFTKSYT

Q: With `CC(C)(S)CCO` [3-mercapto-3-methylbutanol] as the molecule, how does the “response of OR4E2” value (OR4E2) read?
A: The value was “responds”.

Q: Which “response of OR4E2” value (OR4E2) does the source give for `C=CCSSSCC=C` [diallyl trisulfide] here?
A: The value was “responds”.

Q: Which results are given for `CSC` [dimethyl sulfide]?
A: EC50 (consensus OR11H2; consensus OR11H2, 30 μM CuCl2): 22 µM; dose dependence of the response of consensus OR11H2 (consensus OR11H2; [3]): dose-dependent manner; response of consensus OR11H2 (consensus OR11H2; [3]): responded; EC50 (consensus OR4K17; consensus OR4K17, 30 μM CuCl2, read-out: EC50(μM) with 30 μM CuCl2): 188 µM; dose dependence of the response of consensus OR4K17 (consensus OR4K17; [3]): dose-dependent manner; response of consensus OR4K17 (consensus OR4K17; [3]): responded; EC50 ([1]; OR4S2 (original), 30 μM CuCl2, read-out: EC50(μM) with 30 μM CuCl2): 22 µM; dose dependence of the response of OR4S2 [1, 3]: dose-dependent manner; response of OR4S2 [1, 3]: responded; EC50 (consensus OR4E2; consensus OR4E2, 30 μM CuCl2, read-out: EC50(μM) with 30 μM CuCl2): 22 µM; dose dependence of the response of consensus OR4E2 (consensus OR4E2; [3]): dose-dependent manner; response of consensus OR4E2 (consensus OR4E2; [3]): responded; EC50 (consensus OR4C15; consensus OR4C15, 30 μM CuCl2, read-out: EC50(μM) with 30 μM CuCl2): 414 µM; dose dependence of the response of consensus OR4C15 (consensus OR4C15; [3]): dose-dependent manner; response of consensus OR4C15 (consensus OR4C15; [3]): responded

B1: consensus OR7A17 (a): consensus olfactory receptor polypeptide (protein)
chain: MEPENDTGISEFLLLGLSEEPELQPFLFGLFLSMYLVTVLGNLLIILATISDSHLHTPMYFFLSNLSFADICFISTTVPKMLINIQTQSRVITYAGCITQMCFFVLFGGLDSLLLAVMAYDRFVAICHPLHYTVIMNPRLCGLLVLASWMIAALNSLSQSLMVLWLSFCTDLEIPHFFCELNQVIHLACSDTFLNDMGMYFAAGLLAGGPLAGILYSYSKIVSSIRAISSAQGKYKAFSTCASHLSVVSLFCCTGLGVYLTSAATHNSHTSATASVMYTVATPMLNPFIYSLRNKDIKRALKMSFRGKQ
modifications: OR7A17 consensus-a
notes: consensus olfactory receptor polypeptide
Q: For B1, which “ligand responsiveness in comparison with the original human receptor” value (“ligand responsiveness in comparison” below) [2] is on record?
A: The value was “elevates responsiveness”.

B2: consensus OR4S2 (b): consensus olfactory receptor polypeptide (protein)
chain: MEKINNVTEFIFWGLSQSPEVQRVCFVVFLFFYIAIVLGNLLIVLTVCLSNSLKSPMYFFLSFLSFVEICYSSVTAPKMIVDLLAKDKTISYVGCMLQLFFVHFFGCTEIFLLTVMAYDRYVAICKPLHYMTIMNRQTCNKLVLGTWVGGFLHSIIQVLLVVQLPFCGPNVIDHYFCDLHPVLKLACTDTFIVGVVVTANSGTIALGSFVILLISYSIILVSLRKQSAEGRRKALSTCGSHITVVILFFGPCIFMYMRPSTTFSEDKMVAVFYTIITPMLNPLIYTLRNAEVKNAMKKLWGRNVFLEAKGK
modifications: OR4S2 consensus-b
notes: as for B1
Q: Which “ligand responsiveness in comparison” value [2] does the source give for B2 here?
A: Its value is “elevates responsiveness”.

B3: consensus OR7D4 (c): consensus olfactory receptor polypeptide (protein)
chain: MEAENHTEVSEFLLLGLSEDPELQPLLFGLFLSMYLVTVLGNLLIILAISSDSHLHTPMYFFLSNLSFVDICFISTTVPKMLVNIQAQSKDISYMGCLTQVYFFMIFAGMDNFLLTVMAYDRFVAICHPLHYTVIMNPRLCGLLVLASWFIIFWVSLVHILLMKRLTFCTGTEIPHFFCELAQVLKVACSDTLINNIVLYVATALLGVFPLTGILFSYSQIVSSLMRMSSTKGKYKAFSTCGSHLSVVSLFYGTGLGVYLSSAVTHSSQSSSIASVMYTVVTPMLNPFIYSLRNKDVKGALGRLLSRAASCP
modifications: OR7D4 consensus-c
notes: as for B1
Q: With B3 as the molecule, how does the “ligand responsiveness in comparison” value [2] read?
A: The value was “sufficiently elevated”.

B4: consensus OR2A25 (b): consensus olfactory receptor polypeptide (protein)
chain: MGGNQTSITEFLLLGFPVGPRIQMLLFGLFSLFYVFTLLGNGTILGLISLDSRLHTPMYFFLSHLAVVDIAYACNTVPQMLVNLLHPAKPISFAGCMTQTFLFLSFAHTECLLLVVMSYDRYVAICHPLRYSAIMTWRVCITLALTSWTLGVLLALIHLVLLLPLPFCRPQKINHFFCEIMAVLKLACADTHINEVMVLAGAISVLVGPLSSIVVSYMCILCAILKIQSGEGQRKAFSTCSSHLCVVGLFYGTAIIMYVGPQYGNPKEQKKYLLLFHSLFNPMLNPLIYSLRNSEVKNTLKRMLEKERAL
modifications: OR2A25 consensus-b
notes: as for B1
Q: Which “ligand responsiveness in comparison” value [2] does the source give for B4 here?
A: Its value is “sufficiently elevated”.
